Experimental data as given in patent publication US4981842A, “Method of treating hormonal dependent mammary tumors in female mammals” (Roussel Uclaf, priority 1979, dated 1991).

Tests used:
[1] = tested on: testicular steroidogenesis; assay: Inhibitory activity on testicular steroidogenesis in a patient with prostate cancer; type: in vivo, human; conditions: intranasal 500 μg twice a day
Description: The results are reported in the graphs of sheet 2 of the Figures.

[2] = tested on: testicular steroidogenesis; assay: Inhibitory activity against testicular steroidogenesis in men in good health, single intranasal dose; type: in vivo; conditions: for seric level of testosterone/steroids on the fourth day after administration: fourth day (until 6th day)
Protocol: The inhibitory activity of [D Ser (tbu)^6 xdes Gly NH2^10 ]LH-RH ethylamide (described in German application Ser. No. 2,438,350) against testicular steroidogensis in men in good health was determined on men in good health aged 30 to 40 years. The said product was administered intranasally at a dose of 500 μg in a few drops of distilled water at 8 A.M. on the third day of the test. For 2 days prior to the treatment and for 6 days after the treatment, samples of blood were taken daily at 8 A.M., 3 P.M. and 10 P.M. On the day of administration of the LH-RH agonist, blood samples were taken at 11 A.M. and 6 P.M.
The seric concentrations of LH and FSH were measured by radioimmuno-logic dosages with double antibodies and the antiboides for measuring LH and FSH were furnished by the National Pituitary Agency of N.I.H. in Bethesda, Md. The seric concentrations of steroids was measured by radioimmuno-logic dosages in which one ml of serum was extracted with ether and the steroids were separated on a LH-20 column before measuring with radioimmuno-logic dosages. The radioimmuno-logic dosage results were determined by a program derived from model II of Rodbard et al [Second Karolinska Symposium on Research Methods in Reproductive Endroerinology, Diczfalusky Editer, Copenhague (1970), pp. 79-103]. The statistical significance was determined by the "multiple level test" of Duncan-Kramer [Kramer, Biometrics, vol. 12 (1956), p. 307]. The results are shown in the graphs on sheet 1 of the Figures filed herewith.

[3] = tested on: prostate and seminal vesicules; assay: Peptide in association with an antiandrogen: weight of prostate and seminal vesicles in rats; type: in vivo, rats of the Sprague-Dawley strain; conditions: 14 days, 100 or 500 μg peptide s.c. plus 5 mg product A twice daily
Protocol: The effect of the administration of [D Ser (tbu)^6 des Gly NH2^10 ] LH-RH ethylamide in association with an antiandrogen was determined on groups of 9 normal rats of the Sprague-Dawley strain weighing about 250 g. The rats received for 14 days a subcutaneous administration at 9 A.M. of D Ser(Tbu)^6 of Gly^10 LH-RH ethylamide at a dose of 20, 100 or 500 μg in physiological serum and at 9 A.M. and 4 P.M. doses of 1 or 5 mg of 5,5-dimethyl-3-[4-nitro-3-trifluoromethyl-phenyl]-2,4-imidazolidinedione (product A) in solution in seasame oil containing 5% of benzyl alcohol. One group of rats received only physiological serum and one group received only product A.
The animals were killed 24 hours after the last injection and the weight of the prostate and seminal vesicules of the rats were determined.

[4] = tested on: ovarian steroidogenesis; assay: Inhibitory activity on ovarian steroidogenesis in women; type: in vivo
Protocol: The inhibitory activity of [D Ser (tbu)^6 xdes Gly NH2^10 ]LH-RH ethylamide on ovarian steroidogenosis in women was determined on 6 women aged 26 to 35 years with normal and regular menstrual cycles and without prior endocrinal or gynecological problems. The study was conducted for 6 consecutive cycles consisting of 2 pretreatment cycles, 2 treatment cycles and 2 post-treatment cycles. Two drops of a solution containing 500 μg of [D Ser (tbu)^6 xdes Gly NH2^10 ] LH-RH ethylamide were deposited on each nostril at 8 A.M. and 5 P.M. of a day between the 4th and 9th day after the peak of LH-day 0. Daily blood samples were taken between 4 and 6 P.M. to measure seric levels of LH, FSH, progesterone and estradiol which were determined by radioimmuno-logictests with double antibodies. The antibodies to measure LH and FSH were furnished by the National Pituitory Agency of N.I.H. of Bethesda, Md.
Estradiol and progesterone were measured with highly specific antibodies developed against 7-(O-carboxymethyl)oxime of estradiol and 12-(O-carboxymethyl)-oxime of progesterone, respectively [3H] 17β-estradiol and ^125 I-progesterone -12-[O-carboxymethyl)-oxime]used as tracers. The serum was extracted with benzene and the steroids were separated with a LH-20 column before the determination. The radioimmunological results were exploited by the program derived from model II of Rodbard and Lewald as in Example 1 and the statistical significance was measured by the multiple level test of Ducan-Kramer of Example 1. The results are shown in the graphs of sheets 3 to 5 of the Figures.

[5] = intranasal 500 μg, 3rd day following administration
[6] = intranasal 500 μg at 8 A.M. and 5 P.M. of one day in luteal phase, typical subject (sheet 3)

SMILES: CCNC(=O)[C@@H]1CCCN1C(=O)[C@H](CCCNC(=N)N)NC(=O)[C@H](CC(C)C)NC(=O)[C@@H](COC(C)(C)C)NC(=O)[C@H](Cc1ccc(O)cc1)NC(=O)[C@H](CO)NC(=O)[C@H](Cc1c[nH]c2ccccc12)NC(=O)[C@H](Cc1c[nH]cn1)NC(=O)[C@@H]1CCC(=O)N1 [[D Ser (tbu)^6 xdes Gly NH2^10] LH-RH ethylamide]
- level of androgenic steroids (plasma) [1]: diminution
- level of testosterone (plasma) ([1]; two weeks of treatment): stabilized at a very low level
- concentration of 17-OH-progesterone relative to initial control values [2, 5]: 40%
- concentration of testosterone relative to initial control values [2, 5]: 50%
- seric concentration of pregnenolone, 17-OH-pregnenolone, progesterone, 17-OH-progesterone, Δ5-androstene-3β,17β-diol and testosterone on the day of treatment ([2]; intranasal 500 μg, day of treatment): increased
- plasmatic levels of LH and FSH ([2]; intranasal 500 μg, men): increase
- seric level of testosterone/steroids on the fourth day after administration ([2]; single intranasal dose 500 μg): returned to normal
- seric level of testosterone/steroids on the fourth day after administration ([2]; single intranasal dose 500 μg, listed as peptide): return to normal levels
- duration of the drop of seric levels of testicular steroids (testosterone and its precursors) ([2]; single intranasal dose 500 μg, human): 3 days
- diminution of the level of testosterone ([2]; single intranasal dose 500 μg, human, 3rd day following administration): 50%
- weight of the prostate [3]: Similar, but a little less marked
- weight of the seminal vesicules [3]: approached the weight of the seminal vesicules of castrated rats
- reduction of the level of progesterone as compared to the controls ([4]; 12 cycles of treatment (sheet 5)): 46%
- progesterone level in cycles of post-treatment, pretreatment cycles as base of 100% ([4]; 12 cycles, 6 women): 99%
- progesterone level in cycles of treatment, pretreatment cycles as base of 100% ([4]; 12 cycles, 6 women): 46%
- reduction of seric levels of progesterone compared to controls, first cycle of treatment [4, 6]: 13%
- reduction of seric levels of progesterone compared to controls, second cycle of treatment [4, 6]: 34%
- level of seric progesterone over the 2 cycles of treatment (sheet 4) ([4]; return to normal for the 2 cycles of post-treatment): accelerated diminution
